Data taken from article PMC7129073 (Clinical Microbiology and Infection, 2015).

Columns and labels:
S. aureus = experiment: NCCLS broth microdilution MIC, 50 mg/L calcium; type: cell-based
Enterococcus spp. = experiment: NCCLS broth microdilution MIC, 50 mg/L calcium; type: cell-based
[1] = tested on: viridans group Streptococcus spp.; experiment: NCCLS broth microdilution MIC, 50 mg/L calcium; type: cell-based
CA-MRSA = experiment: MIC, MBC; type: cell-based, Staphylococcus aureus
MDR-MRSA = experiment: MIC, MBC; type: cell-based, Staphylococcus aureus; conditions: time kill, two strains
[2] = tested on: viridans group streptococci (VgS) and Streptococcus bovis; experiment: Broth microdilution and disk diffusion; type: cell-based
E. faecalis = experiment: NCCLS broth microdilution MIC, 50 mg/L calcium; type: cell-based
MRSA = experiment: Disk diffusion; type: cell-based, Staphylococcus aureus; conditions: 200 isolates
[3] = tested on: beta-haemolytic Streptococcus spp.; experiment: NCCLS broth microdilution MIC, 50 mg/L calcium; type: cell-based
[4] = tested on: coagulase-negative Staphylococci; experiment: NCCLS broth microdilution MIC, 50 mg/L calcium; type: cell-based
E. faecium = experiment: NCCLS broth microdilution MIC, 50 mg/L calcium; type: cell-based

For CCCCCCCCCC(=O)N[C@@H](Cc1c[nH]c2ccccc12)C(=O)N[C@H](CC(N)=O)C(=O)N[C@@H](CC(=O)O)C(=O)N[C@@H]1C(=O)NCC(=O)N[C@@H](CCCN)C(=O)N[C@@H](CC(=O)O)C(=O)N[C@H](C)C(=O)N[C@@H](CC(=O)O)C(=O)NCC(=O)N[C@H](CO)C(=O)N[C@@H]([C@H](C)CC(=O)O)C(=O)N[C@@H](CC(=O)c2ccccc2N)C(=O)O[C@@H]1C [daptomycin], the “% S” value (S. aureus; OXA-R) was 99.0%, the MIC range (S. aureus; OXA-R) was 0.12 to 2 µg/mL and the “% S” value (S. aureus; OXA-S) was 99.9%. The MIC range (S. aureus; OXA-S) was at most 0.06 to 2 µg/mL, the “% S” value (Enterococcus spp.) was 100.0% and the MIC range (Enterococcus spp.) was 0.5 to 4 µg/mL. The MIC range [1] was at most 0.06 to 2 µg/mL, the “time to 99.9% kill, as early as” value (CA-MRSA; against all strains (CA-MRSA and MDR-MRSA)) was 4 h and the “Δ Log10 CFU/ml” value (CA-MRSA; time kill, two strains) was −3.88 Log10 CFU/ml. For the same compound, the “Δ Log10 CFU/ml” value (MDR-MRSA) was −4.12 Log10 CFU/ml, the “MIC90, range between species” value [2] was 0.06 − 1 mg/L and the Susceptible isolates ([2]; 915 isolates, daptomycin breakpoint ≤ 1 mg/L) was 99.9%. The “% S” value (E. faecalis) was 100.0%, the MIC range (E. faecalis) was at most 0.06 to 4 µg/mL and the sensitivity (MRSA) was “All isolates were sensitive”. The “% S” value [3] was 100.0%, the MIC range [3] was at most 0.06 to 0.5 µg/mL and the “% S” value ([4]; OXA-R) was 100.0%. For the same compound, the MIC range ([4]; OXA-R) was at most 0.06 to 1 µg/mL, the “% S” value ([4]; OXA-S) was 100.0% and the MIC range ([4]; OXA-S) was 0.12 to 1 µg/mL. The “% S” value (E. faecium; VAN-G (77)) was 97.4%, the MIC range (E. faecium; VAN-G (77)) was 1—8 mg/L and the “% S” value (E. faecium; VAN-R) was 100.0%. The MIC range (E. faecium; VAN-R) was 1—4 mg/L.
